According to patent US8394848B2, “Compounds that modulate intracellular calcium” (Calcimedica, Inc., priority 2008, dated 2013):

Tested on: JR251 or RBL cells
Experiment: Store-operated calcium entry, either JR251 or RBL cells, or both
Assay type: cell-based
Description: The day prior to performing the assay, RBL-2H3 cells are plated in 50 μL of complete medium in a 384 well plate. Cells are grown at 37° C./6% CO2 overnight and grow to 50-60% confluence by the next day. On the assay day, 1.5 μM Fluo-4-AM dye (Invitrogen) in complete medium is added and incubated for 1 hour at RT. Cells are washed twice in Ca^2+-free HBSS buffer and 35 μL Ca^2+-free HBSS buffer is added to each well. 10 μL of a test compound prepared in a Ca^2+-free HBSS solution at 4.5× of the desired concentration is added to a well and incubated for 5 minutes at RT. 10 μL of thapsigargin prepared in a Ca^2+-free HBSS solution at 5.5× of the desired concentration (5.5 uM) is added to each well and incubated for an additional 25 minutes. The initial baseline fluorescence signal is measured with a FLIPR^384 (Molecular Devices) plate reader. 5 μL of 12× calcium in HBSS (12 mM) is added and changes in cellular fluorescence are measured with the FLIPR^384 plate reader. In each well, the change in the fluorescent signal as a function of time due to calcium entry into the cell is determined by calculating the difference between the fluorescent signal measured 7 seconds after calcium addition and the initial baseline fluorescence signal at time zero (t=0). This parameter is designated Upslope. The IC50 value is calculated as the concentration at which 50% of the Upslope is inhibited.

| IC50 [µM] | Compound |
| --- | --- |
| < 10 | O=C(CCc1ccccc1)Nc1scc(-c2cc3cc(Cl)ccc3o2)c1C(=O)O [4-(5-chlorobenzofuran-2-yl)-2-(3-phenylpropanamido)thiophene-3-carboxylic acid] |
| < 10 | Cc1nnsc1C(=O)Nc1scc(-c2ccc(Cl)cc2)c1C(=O)O [4-(4-chlorophenyl)-2-(4-methyl-1,2,3-thiadiazole-5-carboxamido)thiophene-3-carboxylic acid] |
| < 10 | O=C(CCc1ccccc1)Nc1scc(-c2cc(F)c(Cl)cc2Cl)c1C(=O)O [4-(2,4-dichloro-5-fluorophenyl)-2-(3-phenylpropanamido)thiophene-3-carboxylic acid] |
| < 10 | Cc1ccc(C(=O)Nc2scc(-c3ccc(Br)cc3)c2C(=O)O)cn1 [4-(4-bromophenyl)-2-(6-methylnicotinamido)thiophene-3-carboxylic acid] |
| < 10 | O=C(O)c1c(-c2ccc(Cl)cc2)csc1NC(=O)C1Cc2cc(Cl)ccc2O1 (stereo not shown) [2-(5-chloro-2,3-dihydrobenzofuran-2-carboxamido)-4-(4-chlorophenyl)thiophene-3-carboxylic acid] |
| < 10 | N#Cc1ccccc1CCC(=O)Nc1scc(-c2ccc(Cl)cc2)c1C(=O)O [4-(4-chlorophenyl)-2-(3-(2-cyanophenyl)propanamido)thiophene-3-carboxylic acid] |
| < 10 | O=C(Nc1scc(-c2ccc(Br)c(F)c2F)c1C(=O)O)c1ccc2occc2c1 [2-(benzofuran-5-carboxamido)-4-(4-bromo-2,3-difluorophenyl)thiophene-3-carboxylic acid] |
| < 10 | COc1ccc(CCC(=O)Nc2scc(-c3ccc(Br)cc3)c2C(=O)O)cc1 [4-(4-bromophenyl)-2-(3-(4-methoxyphenyl)propanamido)thiophene-3-carboxylic acid] |
| < 10 | O=C(Nc1scc(-c2ccc(Cl)cc2)c1C(=O)O)c1ccc2ncsc2c1 [2-(benzo[d]thiazole-6-carboxamido)-4-(4-chlorophenyl)thiophene-3-carboxylic acid] |
| < 10 | Cc1ccc(-c2csc(NC(=O)c3nc4ccccc4s3)c2C(=O)O)cc1F [2-(benzo[d]thiazole-2-carboxamido)-4-(3-fluoro-4-methylphenyl)thiophene-3-carboxylic acid] |
| < 10 | Cc1ccc(-c2csc(NC(=O)c3cc(C)oc3C)c2C(=O)O)cc1 [2-(2,5-dimethylfuran-3-carboxamido)-4-p-tolylthiophene-3-carboxylic acid] |
| < 10 | O=C(Nc1scc(-c2ccc(Br)cc2)c1C(=O)O)c1nc2c(F)cccc2o1 [4-(4-bromophenyl)-2-(4-fluorobenzo[d]oxazole-2-carboxamido)thiophene-3-carboxylic acid] |
| < 10 | Cn1nc(C(=O)Nc2scc(-c3ccc(Cl)cc3)c2C(=O)O)cc1-c1ccccc1 [4-(4-chlorophenyl)-2-(1-methyl-5-phenyl-1H-pyrazole-3-carboxamido)thiophene-3-carboxylic acid] |
| < 10 | O=C(Nc1scc(-c2cc3cccc(O)c3o2)c1C(=O)O)c1cc2cccc(O)c2o1 [2-(7-hydroxybenzofuran-2-carboxamido)-4-(7-hydroxybenzofuran-2-yl)thiophene-3-carboxylic acid] |
| < 10 | Cc1cc(-c2csc(NC(=O)c3cc4ccccc4o3)c2C(=O)O)c(C)cc1F [2-(benzofuran-2-carboxamido)-4-(4-fluoro-2,5-dimethylphenyl)thiophene-3-carboxylic acid] |
| < 10 | O=C(Nc1scc(-c2ccc(F)cc2F)c1C(=O)O)c1nc2ccccc2o1 [2-(benzo[d]oxazole-2-carboxamido)-4-(2,4-difluorophenyl)thiophene-3-carboxylic acid] |
| < 10 | O=C(O)c1c(-c2ccc(Cl)cc2)csc1NC(=O)C(Cl)Cc1ccccc1Cl (stereo not shown) [2-(2-chloro-3-(2-chlorophenyl)propanamido)-4-(4-chlorophenyl)thiophene-3-carboxylic acid] |
| < 10 | O=C(Nc1scc(-c2cc3cccc(OCc4ccccc4)c3o2)c1C(=O)O)c1cc2ccccc2o1 [2-(benzofuran-2-carboxamido)-4-(7-(benzyloxy)benzofuran-2-yl)thiophene-3-carboxylic acid] |
| < 10 | O=C(Nc1scc(-c2ccc(Cl)c(F)c2F)c1C(=O)O)c1nc2ccccc2o1 [2-(benzo[d]oxazole-2-carboxamido)-4-(4-chloro-2,3-difluorophenyl)thiophene-3-carboxylic acid] |
| < 10 | Cc1ccc(-c2csc(NC(=O)c3nc4cccc(F)c4o3)c2C(=O)O)c(F)c1F [4-(2,3-difluoro-4-methylphenyl)-2-(7-fluorobenzo[d]oxazole-2-carboxamido)thiophene-3-carboxylic acid] |

| IC50 [µM] | Compound |
| --- | --- |
| < 10 | O=C(Nc1scc(-c2ccc3c(c2)CCO3)c1C(=O)O)c1nc2ccccc2o1 [2-(benzo[d]oxazole-2-carboxamido)-4-(2,3-dihydrobenzofuran-5-yl)thiophene-3-carboxylic acid] |
| < 10 | O=C(O)c1c(-c2ccc(Br)cc2)csc1NC(=O)C(F)Cc1c(Cl)cccc1Cl (stereo not shown) [4-(4-bromophenyl)-2-(3-(2,6-dichlorophenyl)-2-fluoropropanamido)thiophene-3-carboxylic acid] |
| < 10 | O=C(O)c1c(-c2ccc(Br)cc2)csc1NC(=O)C1Cc2cc(Cl)ccc2O1 (stereo not shown) [4-(4-bromophenyl)-2-(5-chloro-2,3-dihydrobenzofuran-2-carboxamido)thiophene-3-carboxylic acid] |
| < 10 | O=C(CC(c1ccccc1)c1ccccc1)Nc1scc(-c2ccc(Cl)cc2)c1C(=O)O [4-(4-chlorophenyl)-2-(3,3-diphenylpropanamido)thiophene-3-carboxylic acid] |
| < 10 | Cc1cc(C(=O)Nc2scc(-c3ccc(Br)cc3)c2C(=O)O)cc(O)n1 [4-(4-bromophenyl)-2-(2-hydroxy-6-methylisonicotinamido)thiophene-3-carboxylic acid] |
| < 10 | O=C(Nc1scc(-c2ccc(Cl)cc2)c1C(=O)O)c1nc2ccc(F)cc2o1 [4-(4-chlorophenyl)-2-(6-fluorobenzo[d]oxazole-2-carboxamido)thiophene-3-carboxylic acid] |
| < 10 | O=C(Nc1scc(-c2ccc(Cl)c(Cl)c2)c1C(=O)O)c1nc2ccccc2o1 [2-(benzo[d]oxazole-2-carboxamido)-4-(3,4-dichlorophenyl)thiophene-3-carboxylic acid] |
| < 10 | O=C(CC1CCc2ccccc21)Nc1scc(-c2ccc(Cl)cc2)c1C(=O)O (stereo not shown) [4-(4-chlorophenyl)-2-(2-(2,3-dihydro-1H-inden-1-yl)acetamido)thiophene-3-carboxylic acid] |
| < 10 | N#CC(Cc1ccccc1Cl)C(=O)Nc1scc(-c2ccc(Cl)cc2)c1C(=O)O (stereo not shown) [4-(4-chlorophenyl)-2-(3-(2-chlorophenyl)-2-cyanopropanamido)thiophene-3-carboxylic acid] |
| < 10 | Cc1ccc(-c2csc(NC(=O)c3nc4ccc(Br)cc4o3)c2C(=O)O)c(F)c1F [2-(6-bromobenzo[d]oxazole-2-carboxamido)-4-(2,3-difluoro-4-methylphenyl)thiophene-3-carboxylic acid] |
| < 10 | O=C(Nc1scc(-c2ccc(Br)cc2)c1C(=O)O)c1ccc2nnsc2c1 [2-(benzo[d][1,2,3]thiadiazole-6-carboxamido)-4-(4-bromophenyl)thiophene-3-carboxylic acid] |
| < 10 | O=C(Nc1scc(-c2cc3cccc(O)c3o2)c1C(=O)O)c1nc2ccccc2o1 [2-(benzo[d]oxazole-2-carboxamido)-4-(7-hydroxybenzofuran-2-yl)thiophene-3-carboxylic acid] |
| < 10 | O=C(Nc1scc(-c2ccc(Br)cc2)c1C(=O)O)c1cccc(F)n1 [4-(4-bromophenyl)-2-(6-fluoropicolinamido)thiophene-3-carboxylic acid] |
| < 10 | O=C(Nc1scc(-c2cc3cccc(O)c3o2)c1C(=O)O)c1cc2c(F)cccc2o1 [2-(4-fluorobenzofuran-2-carboxamido)-4-(7-hydroxybenzofuran-2-yl)thiophene-3-carboxylic acid] |
| < 10 | COc1cc(Br)cc2cc(-c3csc(NC(=O)c4cc5ccccc5o4)c3C(=O)O)oc12 [2-(benzofuran-2-carboxamido)-4-(5-bromo-7-methoxybenzofuran-2-yl)thiophene-3-carboxylic acid] |
| < 10 | O=C(Nc1scc(-c2ccc(Cl)cc2)c1C(=O)O)c1ccc(-c2cccs2)s1 [2-(2,2′-bithiophene-5-carboxamido)-4-(4-chlorophenyl)thiophene-3-carboxylic acid] |
| < 10 | O=C(Nc1scc(-c2ccc(Cl)cc2)c1C(=O)O)c1ccsc1 [4-(4-chlorophenyl)-2-(thiophene-3-carboxamido)thiophene-3-carboxylic acid] |
| < 10 | O=C(Nc1scc(-c2ccc(Cl)cc2)c1C(=O)O)c1nc2c(O)cccc2o1 [4-(4-chlorophenyl)-2-(4-hydroxybenzo[d]oxazole-2-carboxamido)thiophene-3-carboxylic acid] |
| < 10 | O=C(O)c1c(-c2ccc(Cl)cc2)csc1NC(=O)C(Cc1ccccc1)n1cnnn1 (stereo not shown) [4-(4-chlorophenyl)-2-(3-phenyl-2-(1H-tetrazol-1-yl)propanamido)thiophene-3-carboxylic acid] |
| < 10 | O=C(Nc1scc(-c2ccc(Cl)cc2)c1C(=O)O)c1nc2cc(Cl)ccc2o1 [2-(5-chlorobenzo[d]oxazole-2-carboxamido)-4-(4-chlorophenyl)thiophene-3-carboxylic acid] |
